Reference: US9694016B2 (Novartis AG, priority 2013, dated 2017)

target: b-Raf (V600E) (Homo sapiens (Human), UniProt P15056, V600E); settings: read-out: b-Raf IC-50; AlphaScreen, 60 min pre-incubation, 3 hours reaction
Sequence (P15056 whole entry V600E): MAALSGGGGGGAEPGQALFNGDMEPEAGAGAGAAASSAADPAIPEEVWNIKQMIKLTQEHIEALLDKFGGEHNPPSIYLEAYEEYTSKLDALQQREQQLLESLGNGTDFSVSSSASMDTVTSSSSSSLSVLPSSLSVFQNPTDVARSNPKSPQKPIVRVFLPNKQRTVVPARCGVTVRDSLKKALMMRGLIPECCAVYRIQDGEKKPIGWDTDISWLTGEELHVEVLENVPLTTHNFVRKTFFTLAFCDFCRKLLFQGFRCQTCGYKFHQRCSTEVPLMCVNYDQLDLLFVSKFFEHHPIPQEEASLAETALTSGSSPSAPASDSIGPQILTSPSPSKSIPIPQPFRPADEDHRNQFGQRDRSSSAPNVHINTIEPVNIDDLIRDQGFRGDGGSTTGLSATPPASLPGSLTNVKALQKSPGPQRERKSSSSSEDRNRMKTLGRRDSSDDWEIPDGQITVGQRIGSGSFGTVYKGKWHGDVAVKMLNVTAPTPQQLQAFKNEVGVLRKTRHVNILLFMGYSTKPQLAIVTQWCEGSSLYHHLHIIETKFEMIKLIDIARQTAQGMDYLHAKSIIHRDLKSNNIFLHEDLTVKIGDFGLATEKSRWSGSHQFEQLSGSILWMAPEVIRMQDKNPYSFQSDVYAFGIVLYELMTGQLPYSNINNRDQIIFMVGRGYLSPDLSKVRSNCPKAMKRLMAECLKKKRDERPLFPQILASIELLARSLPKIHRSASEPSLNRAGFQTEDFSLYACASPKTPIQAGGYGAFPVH

| IC50 | SMILES |
| --- | --- |
| 3.5 nM | Cc1ccc(NC(=O)c2ccnc(C(C)(C)O)c2)cc1-c1cc(N2CCOCC2)n(C)c(=O)c1 [Example 483, 2-(2-hydroxypropan-2-yl)-N-(4-methyl-3-(1-methyl-6-morpholino-2-oxo-1,2-dihydropyridin-4-yl)phenyl)isonicotinamide] |
| 1.1 nM | Cc1ccc(NC(=O)c2ccnc(C(F)(F)F)c2)cc1-c1cc(N2CCOCC2)n(C)c(=O)c1 [Example 485, N-(4-methyl-3-(1-methyl-6-morpholino-2-oxo-1,2-dihydropyridin-4-yl)phenyl)-2-(trifluoromethyl)isonicotinamide] |
| 3.4 nM | Cc1ccc(NC(=O)c2ccnc(C(C)(F)F)c2)cc1-c1cc(N2CCOC(C)(C)C2)c(=O)n(C)n1 [Example 667, 2-(1,1-difluoroethyl)-N-(3-(5-(2,2-dimethylmorpholino)-1-methyl-6-oxo-1,6-dihydropyridazin-3-yl)-4-methylphenyl)isonicotinamide] |
| 51.3 nM | Cc1ncc(NC(=O)c2ccnc(C(C)(F)F)c2)cc1-c1cc(N2CCO[C@H](CO)C2)n(C)c(=O)c1 [Example 530, (S)-2-(1,1-difluoroethyl)-N-(6′-(2-(hydroxymethyl)morpholino)-1′,2-dimethyl-Z-oxo-1′,2′-dihydro-[3,4′-bipyridin]-5-yl)isonicotinamide] |
| 0.6 nM | Cc1ccc(NC(=O)c2ccnc(C(F)F)c2)cc1-c1cc(N2CCOCC2)c(OC(C)C)nn1 [Example 593, 2-(difluoromethyl)-N-(3-(6-isopropoxy-5-morpholinopyridazin-3-yl)-4-methylphenyl)isonicotinamide] |
| 1.3 nM | CCOc1nnc(-c2cc(NC(=O)c3ccnc(C(C)(C)F)c3)ccc2C)cc1N1CCOCC1 [Example 564, N-(3-(6-ethoxy-5-morpholinopyridazin-3-yl)-4-methylphenyl)-2-(2-fluoropropan-2-yl)isonicotinamide] |
| 0.5 nM | COCCOc1nnc(-c2cc(NC(=O)c3cc(C(F)(F)F)ccn3)ccc2C)cc1N1CCOCC1 [Example 599, N-(3-(6-(2-methoxyethoxy)-5-morpholinopyridazin-3-yl)-4-methylphenyl)-4-(trifluoromethyl)picolinamide] |
| 5.3 nM | Cc1ccc(NC(=O)c2cnnc(C(F)(F)F)c2)cc1-c1cc(N2CCOCC2)c(=O)n(C)n1 [Example 647, N-(4-methyl-3-(1-methyl-5-morpholino-6-oxo-1,6-dihydropyridazin-3-yl)phenyl)-6-(trifluoromethyl)pyridazine-4-carboxamide] |
| 3.9 nM | Cc1ccc(NC(=O)c2ccnc(C(C)(C)F)c2)cc1-c1cc(N2CCOC[C@@H]2C)c(=O)n(C)n1 [Example 662, (S)-2-(2-fluoropropan-2-yl)-N-(4-methyl-3-(1-methyl-5-(3-methylmorpholino)-6-oxo-1,6-dihydropyridazin-3-yl)phenyl)isonicotinamide] |

same assay, conditions: read-out: b-Raf IC-50; AlphaScreen, 60 min pre-incubation, reaction 3 hours at room temperature

| IC50 | SMILES |
| --- | --- |
| 1.02 nM | Cc1ccc(NC(=O)c2ccnc(S(C)(=O)=O)c2)cc1-c1cc(N2CCOCC2)nc(N2CCOCC2)c1 [Example 1118, N-(3-(2,6-dimorpholinopyridin-4-yl)-4-methylphenyl)-2-(methylsulfonyl)isonicotinamide] |
| 15.8 nM | Cc1ncc(NC(=O)c2cc(C(C)(C)C#N)ccn2)cc1-c1cnc(OCCO)c(N2CCOCC2)c1 [Example 973, 4-(2-cyanopropan-2-yl)-N-(6′-(2-hydroxyethoxy)-2-methyl-5′-morpholino-[3,3′-bipyridin]-5-yl)picolinamide] |
| 1.56 nM | Cc1ccc(NC(=O)c2cncc(C(F)(F)F)c2)cc1-c1cc(N2CCOCC2)c(=O)n(C)n1 [Example 909, N-(4-methyl-3-(1-methyl-5-morpholino-6-oxo-1,6-dihydropyridazin-3-yl)phenyl)-5-(trifluoromethyl)nicotinamide] |
| 11.2 nM | Cc1ncc(NC(=O)c2ccnc(C(C)(C)F)c2)cc1-c1cc(NCCO)nc(N2CCOCC2)c1 [Example 1056, 2-(2-fluoropropan-2-yl)-N-(2′-((2-hydroxyethyl)amino)-2-methyl-6′-morpholino-[3,4′-bipyridin]-5-yl)isonicotinamide] |
| 15.7 nM | Cc1ncc(NC(=O)c2ccnc(C(F)F)c2)cc1-c1cc(NCCO)nc(N2CCOC[C@H]2C)c1 [Example 1141, (R)-2-(difluoromethyl)-N-(2′-((2-hydroxyethyl)amino)-2-methyl-6′-(3-methylmorpholino)-[3,4′-bipyridin]-5-yl)isonicotinamide] |
| 0.6 nM | Cc1ccc(NC(=O)c2ccnc(C(F)F)c2)cc1-c1cc(N2CCOCC2)c2nccn2c1 [Example 850, 2-(difluoromethyl)-N-(4-methyl-3-(8-morpholinoimidazo[1,2-a]pyridin-6-yl)phenyl)isonicotinamide] |
| 18.1 nM | Cc1ncc(NC(=O)c2ccnc(C(C)(C)O)c2)cc1-c1cnc(OC(C)C)c(N2CCOCC2)c1 [Example 955, 2-(2-hydroxypropan-2-yl)-N-(6′-isopropoxy-2-methyl-5′-morpholino-[3,3′-bipyridin]-5-yl)isonicotinamide] |
| 7.91 nM | Cc1ncc(NC(=O)c2ccnc(C(C)(C)F)c2)cc1-c1cc(N2CCOCC2)c(S(C)(=O)=O)nn1 [Example 927, 2-(2-fluoropropan-2-yl)-N-(6-methyl-5-(6-(methylsulfonyl)-5-morpholinopyridazin-3-yl)pyridin-3-yl)isonicotinamide] |
| 8.27 nM | Cc1ncc(NC(=O)c2cc(C(C)(C)F)ccn2)cc1-c1cnc(OCCO)c(N2CCOCC2)c1 [Example 971, 4-(2-fluoropropan-2-yl)-N-(6′-(2-hydroxyethoxy)-2-methyl-5-morpholino-[3,3′-bipyridin]-5-yl)picolinamide] |

same assay, conditions: read-out: b-Raf IC-50; Table 2; AlphaScreen, 3 hours reaction

| IC50 | SMILES |
| --- | --- |
| 2800 nM | Cc1nc(C(=O)Nc2cnc(C)c(-c3cc(N4CCOCC4)c(=O)n(C)c3)c2)c(C)o1 [Example 383, N-(1′,2-dimethyl-5′-morpholino-6′-oxo-1′,6′-dihydro-[3,3′-bipyridin]-5-yl)-2,5-dimethyloxazole-4-carboxamide] |
| 2.9 nM | CCOc1ncc(-c2cc(NC(=O)c3ccnc(C(C)(C)C#N)c3)ccc2C)cc1N1CCOCC1 [Example 161, 2-(2-cyanopropan-2-yl)-N-(3-(6-ethoxy-5-morpholinopyridin-3-yl)-4-methylphenyl)isonicotinamide] |
| 0.4 nM | CCOc1ncc(-c2cc(NC(=O)c3ccnc(C(F)F)c3)ccc2C)cc1N1CCOCC1 [Example 237, 2-(difluoromethyl)-N-(3-(6-ethoxy-5-morpholinopyridin-3-yl)-4-methylphenyl)isonicotinamide] |
| 2.4 nM | Cc1ncc(NC(=O)c2cc(CN(C)C)cc(C(F)(F)F)c2)cc1-c1cnc(N(C)C)c(N2CCOCC2)c1 [Example 269, N-(6′-(dimethylamino)-2-methyl-5′-morpholino-[3,3′-bipyridin]-5-yl)-3-((dimethylamino)methyl)-5-(trifluoromethyl)benzamide] |
| 0.7 nM | Cc1ccc(NC(=O)c2cccc(C(F)(F)F)c2)cc1-c1cc(N2CCOCC2)nc(NCCO)n1 [Example 31, N-(3-(2-((2-hydroxyethyl)amino)-6-morpholinopyrimidin-4-yl)-4-methylphenyl)-3-(trifluoromethyl)benzamide] |
| 1.8 nM | CCOc1ncc(-c2cc(NC(=O)c3ccnc(C4CC4)c3)cnc2C)cc1N1CCOCC1 [Example 254, 2-cyclopropyl-N-(6′-ethoxy-2-methyl-5′-morpholino-[3,3′-bipyridin]-5-yl)isonicotinamide] |
